The results in this text go back to patent publication US8263608B2, “Melanocortin receptor-specific spiro-piperidine compounds” (Palatin Technologies, Inc., priority 2008, dated 2012).

This experiment concerns the target T1, MC1-R (Homo sapiens, UniProt Q01726).
T1 construct: or, for MC1-R, in HBL cells; endogenous in cells; host or cells: HBL cells
The experiment is described as follows: Assay for agonist activity: intracellular cAMP accumulation (functional assay). The class given is cell-based. As to conditions: functional assays at MC1-R; for EC50: HBL cells that express MC1-R, cAMP; for Emax: maximum efficacy compared to reference agonist NDP-α-MSH. As to the method:
Accumulation of intracellular cAMP is examined as a measure of the ability of the test compounds to elicit a functional response in HEK-293 cells that express MC4-R, or, for MC1-R, in HBL cells. Confluent HEK-293 cells that express recombinant hMC4-R, or HBL cells that express MC1-R, are detached from culture plates by incubation in enzyme-free cell dissociation buffer. Dispersed cells are suspended in Earle's Balanced Salt Solution containing 10 mM HEPES (pH 7.5), 1 mM MgCl2, 1 mM glutamine, 0.5% albumin and 0.3 mM 3-isobutyl-1-methyl-xanthine (IBMX), a phosphodiesterase inhibitor. The cells are plated in 96-well plates at a density of 0.5 x 10^5 cells per well and pre-incubated for 30 minutes. Cells are exposed for 1 hour at 37° C. to test compounds dissolved in DMSO (final DMSO concentration of 1%) at a concentration range of 0.05-5000 nM in a total assay volume of 200 μL. NDP-α-MSH is used as the reference agonist. At the end of the incubation period, cells are disrupted by the addition of 50 μL of lysis buffer (cAMP EIA kit, Amersham) followed by vigorous pipetting. Levels of cAMP in the lysates are determined using a cAMP EIA kit (Amersham). Data analysis is performed by nonlinear regression analysis with Graph-Pad Prism® software. The maximum efficacies of the test compounds are compared to that achieved by the reference melanocortin agonist NDP-α-MSH.

T1 sequence (Q01726 whole entry): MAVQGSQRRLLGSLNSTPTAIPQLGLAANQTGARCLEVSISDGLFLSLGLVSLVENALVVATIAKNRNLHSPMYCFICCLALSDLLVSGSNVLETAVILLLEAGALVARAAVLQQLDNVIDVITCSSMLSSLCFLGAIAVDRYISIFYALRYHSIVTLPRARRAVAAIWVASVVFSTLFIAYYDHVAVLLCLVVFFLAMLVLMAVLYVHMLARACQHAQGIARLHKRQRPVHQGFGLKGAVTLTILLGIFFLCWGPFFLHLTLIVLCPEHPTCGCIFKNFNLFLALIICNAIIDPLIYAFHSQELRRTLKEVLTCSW

`COC(=O)CN1CN(c2ccccc2)C2(CCN(C(=O)[C@@H](Cc3ccc(OC)cc3)NC(=O)CCCCN)CC2)C1=O` [Example 138, {8-[(R)-2-(5-Amino-pentanoylamino)-3-(4-methoxy-phenyl)-propionyl]-4-oxo-1-phenyl-1,3,8-triaza-spiro[4.5]dec-3-yl}-acetic acid methyl ester]: the “functional status at MC1-R” value is “partial agonist”, the EC50 is 340 nM and the Emax was 44%.
The like results for `COc1ccc(C[C@@H](NC(=O)[C@@H](N)Cc2cncn2C)C(=O)N2CCC3(CC2)C(=O)N(Cc2ccccc2)CN3c2ccccc2)cc1` [Example 144, (S)-2-Amino-N-[(R)-2-(3-benzyl-4-oxo-1-phenyl-1,3,8-triaza-spiro[4.5]dec-8-yl)-1-(4-methoxy-benzyl)-2-oxo-ethyl]-3-(3-methyl-3H-imidazol-4-yl)-propionamide] were, in that order, “partial agonist”, 17 nM and 46%.
The like results for `COc1ccc(C[C@@H](NC(=O)[C@@H](N)Cc2cncn2C)C(=O)N2CCC3(CC2)C(=O)N(C)CN3c2ccccc2)cc1` [Example 139, (S)-2-Amino-N-[(R)-1-(4-methoxy-benzyl)-2-(3-methyl-4-oxo-1-phenyl-1,3,8-triaza-spiro[4.5]dec-8-yl)-2-oxo-ethyl]-3-(3-methyl-3H-imidazol-4-yl)-propionamide] were, in that order, “partial agonist”, 177 nM and 45%.
The like results for `COc1ccc(C[C@@H](NC(=O)CCc2c[nH]cn2)C(=O)N2CCC3(CC2)C(=O)N(Cc2ccccc2Cl)CN3c2ccccc2)cc1` [Example 154, N-[(R)-2-[3-(2-Chloro-benzyl)-4-oxo-1-phenyl-1,3,8-triaza-spiro[4.5]dec-8-yl]-1-(4-methoxy-benzyl)-2-oxo-ethyl]-3-(1H-imidazol-4-yl)-propionamide] were, in that order, “partial agonist”, 26 nM and 50%.
Regarding `COc1ccc(C[C@@H](NC(=O)CCc2c[nH]cn2)C(=O)N2CCC3(CC2)C(=O)N(Cc2ccc(Cl)cc2)CN3c2ccccc2)cc1` [Example 156, N-[(R)-2-[3-(4-Chloro-benzyl)-4-oxo-1-phenyl-1,3,8-triaza-spiro[4.5]dec-8-yl]-1-(4-methoxy-benzyl)-2-oxo-ethyl]-3-(1H-imidazol-4-yl)-propionamide], the “functional status at MC1-R” value is recorded as “partial agonist”, the EC50 worked out at 23 nM and the Emax was found to be 45%.
Take `COc1ccc(C[C@@H](NC(=O)[C@@H](N)Cc2cncn2C)C(=O)N2CCC3(CC2)C(=O)N(C(C)C)CN3c2ccccc2)cc1` [Example 141, (S)-2-Amino-N-[(R)-2-(3-isopropyl-4-oxo-1-phenyl-1,3,8-triaza-spiro[4.5]dec-8-yl)-1-(4-methoxy-benzyl)-2-oxo-ethyl]-3-(3-methyl-3H-imidazol-4-yl)-propionamide]: the “functional status at MC1-R” value is reported as “partial agonist”, the EC50 stood at 6 nM and the Emax stood at 45%.
In the case of `COc1ccc(C[C@@H](NC(=O)CCc2c[nH]cn2)C(=O)N2CCC3(CC2)C(=O)N(Cc2ccccn2)CN3c2ccccc2)cc1` [Example 157, 3-(1H-Imidazol-4-yl)-N-[(R)-1-(4-methoxy-benzyl)-2-oxo-2-(4-oxo-1-phenyl-3-pyridin-2-ylmethyl-1,3,8-triaza-spiro[4.5]dec-8-yl)-ethyl]-propionamide], the “functional status at MC1-R” value is “partial agonist”, a half-maximal response (EC50) required 41 nM and the Emax turned out to be 38%.
Take `COc1ccc(C[C@@H](NC(=O)CCc2c[nH]cn2)C(=O)N2CCC3(CC2)C(=O)N(Cc2cccnc2)CN3c2ccccc2)cc1` [Example 158, 3-(1H-Imidazol-4-yl)-N-[(R)-1-(4-methoxy-benzyl)-2-oxo-2-(4-oxo-1-phenyl-3-pyridin-3-ylmethyl-1,3,8-triaza-spiro[4.5]dec-8-yl)-ethyl]-propionamide]: the “functional status at MC1-R” value is on record as “partial agonist”, the EC50 turned out to be 20 nM and the Emax was 45%.
For `COc1ccc(C[C@@H](NC(=O)CCc2cnc[nH]2)C(=O)N2CCC3(CC2)C(=O)N(C2CCCC2)CN3c2ccccc2)cc1` [Example 152, N-[(R)-2-(3-Cyclopentyl-4-oxo-1-phenyl-1,3,8-triaza-spiro[4.5]dec-8-yl)-1-(4-methoxy-benzyl)-2-oxo-ethyl]-3-(3H-imidazol-4-yl)-propionamide], the “functional status at MC1-R” value was “partial agonist”, a half-maximal effect (EC50) was put at 2 nM and the Emax was 50%.
Consider `COc1ccc(C[C@@H](NC(=O)CCc2c[nH]cn2)C(=O)N2CCC3(CC2)C(=O)N(Cc2cccc(Cl)c2)CN3c2ccccc2)cc1` [Example 155, N-[(R)-2-[3-(3-Chloro-benzyl)-4-oxo-1-phenyl-1,3,8-triaza-spiro[4.5]dec-8-yl]-1-(4-methoxy-benzyl)-2-oxo-ethyl]-3-(1H-imidazol-4-yl)-propionamide], for which the “functional status at MC1-R” value was “partial agonist”; the midpoint of the response, the EC50, lay at 14 nM; the Emax is 42%.
The like results for `COc1ccc(C[C@@H](NC(=O)[C@@H](N)Cc2cncn2C)C(=O)N2CCC3(CC2)C(=O)N(C2CCCC2)CN3c2ccccc2)cc1` [Example 151, (S)-2-Amino-N-[(R)-2-(3-cyclopentyl-4-oxo-1-phenyl-1,3,8-triaza-spiro[4.5]dec-8-yl)-1-(4-methoxy-benzyl)-2-oxo-ethyl]-3-(3-methyl-3H-imidazol-4-yl)-propionamide] were, in that order, “partial agonist”, 7 nM and 37%.
In the case of `COC(=O)CN1CN(c2ccccc2)C2(CCN(C(=O)[C@@H](Cc3ccc(OC)cc3)NC(=O)CCc3cnc[nH]3)CC2)C1=O` [Example 137, {8-[(R)-2-(3-3H-Imidazol-4-yl-propionylamino)-3-(4-methoxy-phenyl)-propionyl]-4-oxo-1-phenyl-1,3,8-triaza-spiro[4.5]dec-3-yl}-acetic acid methyl ester], the “functional status at MC1-R” value is listed as “partial agonist”, a half-maximal response (EC50) required 38 nM and the Emax came out at 56%.
As for `CCN1CN(c2ccccc2)C2(CCN(C(=O)[C@@H](Cc3ccc(OC)cc3)NC(=O)[C@@H](N)Cc3cncn3C)CC2)C1=O` [Example 140, (S)-2-Amino-N-[(R)-2-(3-ethyl-4-oxo-1-phenyl-1,3,8-triaza-spiro[4.5]dec-8-yl)-1-(4-methoxy-benzyl)-2-oxo-ethyl]-3-(3-methyl-3H-imidazol-4-yl)-propionamide], the “functional status at MC1-R” value is reported as “partial agonist”, the EC50 is 25 nM and the maximal response (Emax) is 42%.
The like results for `COc1ccc(C[C@@H](NC(=O)C[C@H]2Cc3ccccc3CN2)C(=O)N2CCC3(CC2)C(=O)N(C(C)C)CN3c2ccccc2)cc1` [Example 164, N-[(R)-2-(3-Isopropyl-4-oxo-1-phenyl-1,3,8-triaza-spiro[4.5]dec-8-yl)-1-(4-methoxy-benzyl)-2-oxo-ethyl]-2-(R)-1,2,3,4-tetrahydro-isoquinolin-3-yl-acetamide] were, in that order, “partial agonist”, 0.7 nM and 75%.
Consider `COc1ccc(C[C@@H](NC(=O)CCc2cnc[nH]2)C(=O)N2CCC3(CC2)C(=O)N(CCO)CN3c2ccccc2)cc1` [Example 149, N-[(R)-2-[3-(2-Hydroxy-ethyl)-4-oxo-1-phenyl-1,3,8-triaza-spiro[4.5]dec-8-yl]-1-(4-methoxy-benzyl)-2-oxo-ethyl]-3-(3H-imidazol-4-yl)-propionamide], for which the “functional status at MC1-R” value is recorded as “partial agonist”, it took 25 nM to reach a half-maximal effect (EC50) and the Emax stood at 60%.
As to `COc1ccc(C[C@@H](NC(=O)CCc2c[nH]cn2)C(=O)N2CCC3(CC2)C(=O)N(Cc2ccccc2)CN3c2ccccc2)cc1` [Example 153, N-[(R)-2-(3-Benzyl-4-oxo-1-phenyl-1,3,8-triaza-spiro[4.5]dec-8-yl)-1-(4-methoxy-benzyl)-2-oxo-ethyl]-3-(1H-imidazol-4-yl)-propionamide], the “functional status at MC1-R” value is recorded as “partial agonist”, the half-maximal effective concentration (EC50) amounted to 12 nM and the Emax was 54%.
The like results for `COc1ccc(C[C@@H](NC(=O)CCc2cnc[nH]2)C(=O)N2CCC3(CC2)C(=O)N(C2CCC2)CN3c2ccccc2)cc1` [Example 159, N-[(R)-2-(3-Cyclobutyl-4-oxo-1-phenyl-1,3,8-triaza-spiro[4.5]dec-8-yl)-1-(4-methoxy-benzyl)-2-oxo-ethyl]-3-(3H-imidazol-4-yl)-propionamide] were, in that order, “partial agonist”, 6 nM and 49%.
Regarding `COc1ccc(C[C@@H](NC(=O)CCc2cnc[nH]2)C(=O)N2CCC3(CC2)C(=O)N(C(C)C)CN3c2ccccc2)cc1` [Example 150, 3-(3H-Imidazol-4-yl)-N-[(R)-2-(3-isopropyl-4-oxo-1-phenyl-1,3,8-triaza-spiro[4.5]dec-8-yl)-1(4-methoxy-benzyl)-2-oxo-ethyl]-propionamide], the “functional status at MC1-R” value is “partial agonist”, the EC50 was determined as 3 nM and the Emax turned out to be 71%.
